Legend:
Full-length human MNK1 = biological target: T1, Full-length human MNK1 (Homo sapiens, UniProt Q9BUB5, T385D); assay: MNK1 biochemical IC50 assay (Caliper Mobility Shift Assay); conditions: read-out: P(IC50) MNK1 (converted)
T1 construct: GST (N); purchased Carna Biosciences 02-145; host or cells: baculovirus expression system

Full-length human MNK2 = biological target: T2, Full-length human MNK2 (Homo sapiens, UniProt Q9HBH9, T379D); assay: MNK2 biochemical IC50 assay (Caliper Mobility Shift Assay); conditions: read-out: P(IC50) MNK2 (converted)
T2 construct: GST (N); purchased Carna Biosciences 02-146; host or cells: baculovirus expression system

[1] = tested on: phosphorylation of eIF4E at ser209 in MV4.11 cell line; assay: MNK cellular activity phospho-eIF4E detection assay (Alphascreen Surefire); type: cell-based; conditions: Homo sapiens; MV4.11 cell line, phospho-eIF4E (ser209) Alphascreen Surefire; read-out: P(IC50) elF4E (converted)
Procedure, shortened: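 AlphaScreen SureFire sandwich-immunoassay readout of phospho-eIF4E Ser209 in lysed MV4.11 cells; acceptor then donor beads, each 1.5 hr at room temperature. Signal normalised to untreated DMSO-only controls; duplicate curves, values averaged over at least 2 independent experiments.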

T1 sequence (Q9BUB5 1-424 isoform Q9BUB5-2 T344D): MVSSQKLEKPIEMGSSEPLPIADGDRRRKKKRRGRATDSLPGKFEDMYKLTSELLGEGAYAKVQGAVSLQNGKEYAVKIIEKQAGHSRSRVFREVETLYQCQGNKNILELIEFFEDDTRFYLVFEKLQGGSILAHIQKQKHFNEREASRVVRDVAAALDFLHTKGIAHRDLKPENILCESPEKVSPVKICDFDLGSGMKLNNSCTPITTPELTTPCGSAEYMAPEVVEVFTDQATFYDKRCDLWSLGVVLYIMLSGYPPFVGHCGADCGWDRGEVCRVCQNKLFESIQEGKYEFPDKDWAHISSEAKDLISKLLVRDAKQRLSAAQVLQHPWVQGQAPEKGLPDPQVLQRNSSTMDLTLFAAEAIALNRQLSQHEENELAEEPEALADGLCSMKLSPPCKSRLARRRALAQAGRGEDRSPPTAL
T2 sequence (Q9HBH9 whole entry T379D): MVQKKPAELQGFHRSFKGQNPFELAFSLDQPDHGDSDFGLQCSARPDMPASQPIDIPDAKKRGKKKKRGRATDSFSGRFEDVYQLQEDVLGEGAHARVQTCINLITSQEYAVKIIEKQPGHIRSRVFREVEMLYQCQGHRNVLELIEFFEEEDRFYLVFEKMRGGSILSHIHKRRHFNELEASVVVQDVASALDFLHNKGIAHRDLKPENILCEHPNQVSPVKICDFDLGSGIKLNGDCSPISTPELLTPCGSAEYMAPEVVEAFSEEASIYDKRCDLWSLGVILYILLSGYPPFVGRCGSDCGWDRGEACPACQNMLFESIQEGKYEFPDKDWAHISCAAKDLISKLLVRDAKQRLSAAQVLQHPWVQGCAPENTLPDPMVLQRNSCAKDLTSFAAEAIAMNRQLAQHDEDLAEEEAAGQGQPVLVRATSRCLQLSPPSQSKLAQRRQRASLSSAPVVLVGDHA

| IC50 (Full-length human MNK1) [nM] | IC50 (Full-length human MNK2) [nM] | IC50 [1] [nM] | SMILES |
| --- | --- | --- | --- |
| 6.31 | 5.01 | 20 | O=C(NCCN1CCCC1)c1nc2c(N3CCc4cc(F)ccc43)ncnc2s1 [Example 74, 7-(5-fluoroindolin-1-yl)-N-(2-pyrrolidin-1-ylethyl)thiazolo[5,4-d]pyrimidine-2-carboxamide] |
| 3.16 | 3.16 | 15.8 | O=C(NCCCn1cccn1)c1nc2c(N3CCc4cc(F)ccc43)ncnc2s1 [Example 75, 7-(5-fluoroindolin-1-yl)-N-(3-pyrazol-1-ylpropyl)thiazolo[5,4-d]pyrimidine-2-carboxamide] |
| 6.31 | 3.16 | 7.94 | O=C(NC1COC1)c1nc2c(N3CCc4cc(F)ccc43)ncnc2s1 [Example 76, 7-(5-fluoroindolin-1-yl)-N-(oxetan-3-yl)thiazolo[5,4-d]pyrimidine-2-carboxamide] |
| 2 | 2 | 3.98 | O=C(NC1CCOC1)c1nc2c(N3CCc4cc(F)ccc43)ncnc2s1 (stereo not drawn) [Example 77, 7-(5-fluoroindolin-1-yl)-N-tetrahydrofuran-3-yl-thiazolo[5,4-d]pyrimidine-2-carboxamide] |
| 2 | 2 | 3.16 | O=C(NC1CCNCC1)c1nc2c(N3CCc4cc(F)ccc43)ncnc2s1 [Example 78, 7-(5-fluoroindolin-1-yl)-N-(4-piperidyl)thiazolo[5,4-d]pyrimidine-2-carboxamide] |
| 3.16 | 3.16 | 10 | O=C(NCCN1CCNCC1)c1nc2c(N3CCc4cc(F)ccc43)ncnc2s1 [Example 79, 7-(5-fluoroindolin-1-yl)-N-(2-piperazin-1-ylethyl)thiazolo[5,4-d]pyrimidine-2-carboxamide] |
| 39.8 | 20 | 100 | OCc1nc2c(N3CCc4cc(F)ccc43)ncnc2s1 [Example 81, [7-(5-Fluoroindolin-1-yl)thiazolo[5,4-d]pyrimidin-2-yl]methanol] |
| 31.6 | 31.6 | 158 | CC(C)(O)c1nc2c(N3CCc4cc(F)ccc43)ncnc2s1 [Example 82, 2-[7-(5-Fluoroindolin-1-yl)thiazolo[5,4-d]pyrimidin-2-yl]propan-2-ol] |
| 31.6 | 39.8 | 126 | Nc1nc2c(N3CCc4cc(F)ccc43)ncnc2s1 [Example 83, 7-(5-Fluoroindolin-1-yl)thiazolo[5,4-d]pyrimidin-2-amine] |
| 3.98 | 5.01 | 50.1 | O=C(Nc1nc2c(N3CCc4cc(F)ccc43)ncnc2s1)C1CCOC1 (stereo not drawn) [Example 84, N-(7-(5-Fluoroindolin-1-yl)thiazolo[5,4-d]pyrimidin-2-yl)tetrahydrofuran-3-carboxamide] |
| 10 | 20 | 100 | CN(C)CCCNc1nc2c(N3CCc4cc(F)ccc43)ncnc2s1 [Example 85, N1-(7-(5-fluoroindolin-1-yl)thiazolo[5,4-d]pyrimidin-2-yl)-N3,N3-dimethylpropane-1,3-diamine] |
| 63.1 | 79.4 | 251 | CN(C)CCNc1nc2c(N3CCc4cc(F)ccc43)ncnc2s1 [Example 86] |
| 126 | 79.4 | 200 | Fc1ccc2c(c1)CCN2c1ncnc2sc(N3CCOCC3)nc12 [Example 87, 4-[7-(5-fluoroindolin-1-yl)thiazolo[5,4-d]pyrimidin-2-yl]morpholine] |
| 79.4 | 50.1 | 251 | CN1CCN(c2nc3c(N4CCc5cc(F)ccc54)ncnc3s2)CC1 [Example 88, 7-(5-fluoroindolin-1-yl)-2-(4-methylpiperazin-1-yl)thiazolo[5,4-d]pyrimidine] |
| 39.8 | 63.1 | 200 | CN(C)CCCOc1nc2c(N3CCc4cc(F)ccc43)ncnc2s1 [Example 89, 3-((7-(5-Fluoroindolin-1-yl)thiazolo[5,4-d]pyrimidin-2-yl)oxy)-N,N-dimethylpropan-1-amine] |
| 126 | 126 | 158 | O=C(NC1CCOCC1)c1nc2c(N3CCc4cccc(F)c43)ncnc2s1 [Example 90, 7-(7-Fluoroindolin-1-yl)-N-tetrahydropyran-4-yl-thiazolo[5,4-d]pyrimidine-2-carboxamide] |
| 63.1 | 50.1 | 100 | O=C(NC1CCOCC1)c1nc2c(N3CCc4cc(Cl)cc(F)c43)ncnc2s1 [Example 91, 7-(5-Chloro-7-fluoro-indolin-1-yl)-N-tetrahydropyran-4-yl-thiazolo[5,4-d]pyrimidine-2-carboxamide] |

| IC50 (Full-length human MNK1) [nM] | IC50 (Full-length human MNK2) [nM] | IC50 [1] [nM] | SMILES |
| --- | --- | --- | --- |
| 158 | 126 | 251 | CN(C)CCCNC(=O)c1nc2c(N3CCc4cccc(F)c43)ncnc2s1 [Example 92, N-[3-(dimethylamino)propyl]-7-(7-fluoroindolin-1-yl)thiazolo[5,4-d]pyrimidine-2-carboxamide] |
| 200 | 158 | 251 | CN1CCC(CNC(=O)c2nc3c(N4CCc5cccc(F)c54)ncnc3s2)CC1 [Example 93, 7-(7-fluoroindolin-1-yl)-N-[(1-methyl-4-piperidyl)methyl]thiazolo [5,4-d]pyrimidine-2-carboxamide] |
| 6.31 | 3.98 | 7.94 | O=C(NCC1CCNCC1)c1nc2c(N3CCc4ccccc43)ncnc2s1 [Example 94, 7-Indolin-1-yl-N-(4-piperidylmethyl)thiazolo[5,4-d]pyrimidine-2-carboxamide] |
| 398 | 251 | 501 | CN1CCN(C(=O)c2nc3c(N4CCc5ccccc54)ncnc3s2)CC1 [Example 96, (7-indolin-1-ylthiazolo[5,4-d]pyrimidin-2-yl)-(4-methylpiperazin-1-yl)methanone] |
| 7.94 | 7.94 | 15.8 | CNCCCNC(=O)c1nc2c(N3CCc4ccccc43)ncnc2s1 [Example 97, 7-indolin-1-yl-N-[3-(methylamino)propyl] thiazolo[5,4-d]pyrimidine-2-carboxamide] |
| 3.16 | 3.98 | 3.98 | O=C(NC1CCNCC1)c1nc2c(N3CCc4ccccc43)ncnc2s1 [Example 98, 7-indolin-1-yl-N-(4-piperidyl)thiazolo[5,4-d]pyrimidine-2-carboxamide] |
| 12.6 | 5.01 | 15.8 | O=C(NC1CC1)c1nc2c(N3CCc4ccccc43)ncnc2s1 [Example 99, N-cyclopropyl-7-indolin-1-yl-thiazolo[5,4-d]pyrimidine-2-carboxamide] |
| 25.1 | 20 | 15.8 | O=C(NC1COC1)c1nc2c(N3CCc4ccccc43)ncnc2s1 [Example 100, 7-indolin-1-yl-N-(oxetan-3-yl)thiazolo[5,4-d]pyrimidine-2-carboxamide] |
| 10 | 12.6 | 31.6 | CC(C)[C@@H](CO)NC(=O)c1nc2c(N3CCc4ccccc43)ncnc2s1 [Example 101, N-[(1S)-1-(hydroxymethyl)-2-methyl-propyl]-7-indolin-1-yl-thiazolo[5,4-d]pyrimidine-2-carboxamide] |
| 158 | 200 | 631 | CC1(C)CN(C(=O)c2nc3c(N4CCc5ccccc54)ncnc3s2)CCO1 [Example 102, (2,2-dimethylmorpholin-4-yl)-(7-indolin-1-ylthiazolo[5,4-d]pyrimidin-2-yl)methanone] |
| 10 | 10 | 63.1 | O=C(NCC1CCOCC1)c1nc2c(N3CCc4ccccc43)ncnc2s1 [Example 103, 7-indolin-1-yl-N-(tetrahydropyran-4-ylmethyl)thiazoto[5,4-d]pyrimidine-2-carboxamide] |
| 20 | 12.6 | 10 | O=C(NCC(O)CO)c1nc2c(N3CCc4ccccc43)ncnc2s1 (stereo not drawn) [Example 104] |
| 2 | 3.16 | 2.51 | CC1(C)CN(c2ncnc3sc(C(=O)NC4CCOCC4)nc23)c2ccc(F)cc21 [Example 105, 7-(5-Fluoro-3,3-dimethyl-indolin-1-yl)-N-tetrahydropyran-4-yl-thiazolo[5,4-d]pyrimidine-2-carboxamide] |
| 12.6 | 7.94 | 20 | O=C(NC1CCOCC1)c1nc2c(N3CCc4ccccc43)ncnc2s1 [Example 106, 7-Indolin-1-yl-N-tetrahydropyran-4-yl-thiazolo[5,4-d]pyrimidine-2-carboxamide] |
| 1.58 | 3.16 | 2 | O=C(NC1CCOCC1)c1nc2c(N3CC4(CC4)c4cc(F)ccc43)ncnc2s1 [Example 107, 7-(5′-fluorospiro[cyclopropane-1,3′-indoline]-1′-yl)-N-tetrahydropyran-4-yl-thiazolo[5,4-d]pyrimidine-2-carboxamide] |
| 63.1 | 39.8 | 31.6 | O=C(NC1CCOCC1)c1nc2c(N3CC4(CCOCC4)c4ccccc43)ncnc2s1 [Example 108, 7-spiro[indoline-3,4′-tetrahydropyran]-1-yl-N-tetrahydropyran-4-yl-thiazolo[5,4-d]pyrimidine-2-carboxamide] |
| 12.6 | 7.94 | 12.6 | O=C(NC1CCOCC1)c1nc2c(N3CC(CO)c4ccccc43)ncnc2s1 (stereo not drawn) [Example 109, 7-[3-(hydroxymethyl)indolin-1-yl]-N-tetrahydropyran-4-yl-thiazolo[5,4-d]pyrimidine-2-carboxamide] |

From US10669284B2, “Fused thiazolopyrimidine derivatives as MNKS inhibitors” (LIFEARC, priority 2015, dated 2020)
